The results in this text go back to patent US20240299387A1, “HETEROCYCLIC EGFR INHIBITORS FOR USE IN THE TREATMENT OF CANCER” (Blueprint Medicines Corporation, priority 2021, published 2024).

Where only a bound is given, the exact number is not on record here.

Assay [1] addresses T1, EGFR L858R T790M in NCI-H1975 cell line (Homo sapiens, UniProt P00533, L858R/T790M).
T1 construct: host or cells: NCI-H1975
Nature of the assay: NCI-H1975 pEGFR AlphaLISA assay. Conditions: NCI-H1975 cells (EGFR L858R T790M), p-EGFR (Tyr1068), 4-5 hours incubation; read-out: Ext pEGFR H1975 GMean IC50 (nM) Protocol: @Pharmaron AlphaLISA (Num). It is filed as cell-based. Here is the method: The NCI-H1975 cells were seeded at 12.5K/well in 22 μL into 384 well opti plate (PerkinElmer, 6007299) and adhering overnight at 37C/5% CO2. On the next day, the test compounds and DMSO control were added into H1975 cell plate followed by incubation at 37C/5% CO2 for 4-5 hours. […] Then 5 μL of a donor bead mix was added to each well followed by overnight incubation at room temperature in dark. On the next day, the plate was read at a compatible plate reader to obtain pEGFR signal. Percent of pEGFR inhibition was plotted against log concentration of compounds to generate IC50 values.

For the next assay, the target named is T2, EGFR (L858R T790M C797S) (Homo sapiens, UniProt P00533, C797S/L858R/T790M).
T2 construct: purchased SignalChem E10-122VG
T2 sequence (P00533 25-1210 T790M/C797S/L858R): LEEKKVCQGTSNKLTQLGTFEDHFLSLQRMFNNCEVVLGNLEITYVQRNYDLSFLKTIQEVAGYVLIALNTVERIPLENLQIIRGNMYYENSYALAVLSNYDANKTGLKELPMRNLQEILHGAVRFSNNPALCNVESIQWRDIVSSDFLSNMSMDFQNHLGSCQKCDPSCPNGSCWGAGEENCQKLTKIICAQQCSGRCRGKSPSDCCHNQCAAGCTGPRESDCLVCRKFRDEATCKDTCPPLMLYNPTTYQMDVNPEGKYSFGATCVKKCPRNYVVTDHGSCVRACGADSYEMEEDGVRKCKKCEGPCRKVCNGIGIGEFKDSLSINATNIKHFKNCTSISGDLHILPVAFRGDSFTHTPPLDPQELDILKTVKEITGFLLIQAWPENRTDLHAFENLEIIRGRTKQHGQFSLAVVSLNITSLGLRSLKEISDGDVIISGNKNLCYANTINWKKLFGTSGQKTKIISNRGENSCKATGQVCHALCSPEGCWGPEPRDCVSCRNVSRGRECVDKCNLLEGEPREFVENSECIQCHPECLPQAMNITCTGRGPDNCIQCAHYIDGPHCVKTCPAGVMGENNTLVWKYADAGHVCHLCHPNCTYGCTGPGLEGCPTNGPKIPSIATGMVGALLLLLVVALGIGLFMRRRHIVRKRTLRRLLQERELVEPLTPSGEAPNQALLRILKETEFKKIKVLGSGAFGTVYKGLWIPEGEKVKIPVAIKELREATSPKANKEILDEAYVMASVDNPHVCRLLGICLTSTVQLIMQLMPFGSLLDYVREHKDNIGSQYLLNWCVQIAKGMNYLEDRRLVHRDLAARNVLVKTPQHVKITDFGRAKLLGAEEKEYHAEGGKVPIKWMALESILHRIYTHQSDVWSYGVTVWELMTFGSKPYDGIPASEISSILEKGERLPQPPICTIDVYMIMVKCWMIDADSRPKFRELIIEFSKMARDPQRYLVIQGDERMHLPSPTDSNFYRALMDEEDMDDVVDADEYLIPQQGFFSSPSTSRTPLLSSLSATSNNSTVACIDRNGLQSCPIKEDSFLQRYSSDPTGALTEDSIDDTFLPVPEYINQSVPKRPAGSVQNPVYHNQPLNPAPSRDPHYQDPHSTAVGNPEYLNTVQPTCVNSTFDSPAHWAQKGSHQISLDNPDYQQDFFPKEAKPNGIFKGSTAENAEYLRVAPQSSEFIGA
Nature of the assay: Biochemical EGFR inhibition assay (Caliper mobility shift), EGFR LRTMCS mutant. Conditions: LRTMCS (PH) IC50 (nM) @ 1 mM ATP (Num). As for the experimental part: Reactions proceeded until between 10% to 20% total peptides were phosphorylated at room temperature (25° C.) and were terminated with 35 mM 2,2′,2″,2′″-(ethane-1,2-diyldinitrilo)tetraacetic acid (EDTA). Product was detected using the Caliper mobility shift detection method where the phosphorylated peptide (product) and substrate were electrophoretically separated and measured. Percent activity was plotted against log concentration of compound and points to generate an apparent IC50.

T1 sequence (P00533 25-1210 T790M/L858R): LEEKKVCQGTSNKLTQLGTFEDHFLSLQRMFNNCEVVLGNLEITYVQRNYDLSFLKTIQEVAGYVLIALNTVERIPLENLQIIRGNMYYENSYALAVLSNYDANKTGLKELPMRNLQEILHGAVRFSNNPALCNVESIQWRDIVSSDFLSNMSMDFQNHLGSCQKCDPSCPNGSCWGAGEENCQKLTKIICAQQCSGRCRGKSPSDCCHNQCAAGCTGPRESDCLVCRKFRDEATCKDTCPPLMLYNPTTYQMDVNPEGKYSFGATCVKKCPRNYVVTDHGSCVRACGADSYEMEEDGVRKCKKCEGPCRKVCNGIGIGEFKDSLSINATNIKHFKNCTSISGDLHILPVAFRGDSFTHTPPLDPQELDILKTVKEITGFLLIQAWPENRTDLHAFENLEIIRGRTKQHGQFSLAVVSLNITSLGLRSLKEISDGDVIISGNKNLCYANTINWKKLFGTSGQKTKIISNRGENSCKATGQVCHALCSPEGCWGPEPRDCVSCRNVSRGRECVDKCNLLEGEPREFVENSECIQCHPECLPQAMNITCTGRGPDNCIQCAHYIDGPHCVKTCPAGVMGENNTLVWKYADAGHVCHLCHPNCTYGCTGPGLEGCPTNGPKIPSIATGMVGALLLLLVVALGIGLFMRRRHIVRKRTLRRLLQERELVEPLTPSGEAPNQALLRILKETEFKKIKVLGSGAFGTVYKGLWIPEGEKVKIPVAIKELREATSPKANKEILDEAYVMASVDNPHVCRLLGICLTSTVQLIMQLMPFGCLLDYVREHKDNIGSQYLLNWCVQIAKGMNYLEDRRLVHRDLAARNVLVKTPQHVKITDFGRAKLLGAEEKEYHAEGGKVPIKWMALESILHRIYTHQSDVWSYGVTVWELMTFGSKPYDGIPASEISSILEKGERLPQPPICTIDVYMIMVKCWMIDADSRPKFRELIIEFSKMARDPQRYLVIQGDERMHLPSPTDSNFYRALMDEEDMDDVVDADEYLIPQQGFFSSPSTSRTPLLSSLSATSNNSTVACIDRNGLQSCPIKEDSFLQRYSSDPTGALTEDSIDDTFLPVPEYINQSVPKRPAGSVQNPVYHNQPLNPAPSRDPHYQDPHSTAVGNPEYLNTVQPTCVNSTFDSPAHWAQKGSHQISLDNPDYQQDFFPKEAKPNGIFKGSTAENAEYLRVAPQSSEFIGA

Regarding `CC(C)c1ccc(OCCn2ccnc2)c2cnc(Nc3ccnc(N4CCC(C)(O)CC4)n3)cc12` [Example 17, 1-(4-((8-(2-(1H-imidazol-1-yl)ethoxy)-5-isopropylisoquinolin-3-yl)amino)pyrimidin-2-yl)-4-methylpiperidin-4-ol], the half-maximal inhibitory concentration (IC50) is > 50 nM in assay [1] and < 15 nM at EGFR (L858R T790M C797S).

Consider `CC(C)c1ccc(OCC2CCc3cncn32)c2cnc(Nc3ccnc(N4CCC(C)(O)CC4)n3)cc12` (stereo not drawn) [Example 18, 1-(4-((8-((6,7-dihydro-5Hpyrrolo[1,2-c]imidazol-5-yl)methoxy)-5-isopropylisoquinolin-3-yl)amino)pyrimidin-2-yl)-4-methylpiperidin-4-ol], for which the results for the IC50 (in assay [1]; at EGFR (L858R T790M C797S)) were 20 to 30 nM and < 15 nM, respectively.

As for `CC(C)c1ccc(OC[C@H]2CCC(=O)N2C)c2cnc(Nc3ccnc(N4CC[C@](C)(O)[C@H](F)C4)n3)cc12` [Example 25, (R)-5-(((3-((2-((3R,4S)-3-fluoro-4-hydroxy-4-methylpiperidin-1-yl)pyrimidin-4-yl)amino)-5-isopropylisoquinolin-8-yl)oxy)methyl)-1-methylpyrrolidin-2-one], the half-maximal inhibitory concentration (IC50) in assay [1] was > 50 nM; on EGFR (L858R T790M C797S), 15 to 20 nM.

As to `CC(=O)N1CC(COc2ccc(C(C)C)c3cc(Nc4ccnc(N5CC[C@](C)(O)[C@H](F)C5)n4)ncc23)C1` [Example 26, 1-(3-(((3-((2-((3R,4S)-3-fluoro-4-hydroxy-4-methylpiperidin-1-yl)pyrimidin-4-yl)amino)-5-isopropylisoquinolin-8-yl)oxy)methyl)azetidin-1-yl)ethan-1-one], the IC50 in assay [1] is > 50 nM; at EGFR (L858R T790M C797S), 15 to 20 nM.

For `CC(C)c1ccc(OCCn2cnnc2)c2cnc(Nc3ccnc(N4CC[C@](C)(O)[C@H](F)C4)n3)cc12` [Example 27, (3R,4S)-1-(4-((8-(2-(4H-1,2,4-triazol-4-yl)ethoxy)-5-isopropylisoquinolin-3-yl)amino)pyrimidin-2-yl)-3-fluoro-4-methylpiperidin-4-ol], the values for the IC50 (in assay [1]; on EGFR (L858R T790M C797S)) were > 50 nM and < 15 nM, respectively.

As to `CC(C)c1ccc(OCCn2cnnc2)c2cnc(Nc3ccnc(N4CC[C@@](C)(O)[C@@H](F)C4)n3)cc12` [Example 28, (3S,4R)-1-(4-((8-(2-(4H-1,2,4-triazol-4-yl)ethoxy)-5-isopropylisoquinolin-3-yl)amino)pyrimidin-2-yl)-3-fluoro-4-methylpiperidin-4-ol], the values for the IC50 (in assay [1]; at EGFR (L858R T790M C797S)) were 20 to 30 nM and < 15 nM, respectively.

For `CC(C)c1ccc(OCCn2ccnc2)c2cnc(Nc3ccnc(N4CC[C@](C)(O)[C@H](F)C4)n3)cc12` [Example 29, (3R,4S)-1-(4-((8-(2-(1H-imidazol-1-yl)ethoxy)-5-isopropylisoquinolin-3-yl)amino)pyrimidin-2-yl)-3-fluoro-4-methylpiperidin-4-ol], the results for the IC50 (in assay [1]; at EGFR (L858R T790M C797S)) were 20 to 30 nM and < 15 nM, respectively.

As to `Cc1nncn1CCOc1ccc(C(C)C)c2cc(Nc3ccnc(N4CC[C@](C)(O)[C@H](F)C4)n3)ncc12` [Example 30, (3R,4S)-3-fluoro-1-(4-((5-isopropyl-8-(2-(3-methyl-4H-1,2,4-triazol-4-yl)ethoxy)isoquinolin-3-yl)amino)pyrimidin-2-yl)-4-methylpiperidin-4-ol], the IC50 in assay [1] was > 50 nM; at EGFR (L858R T790M C797S), < 15 nM.

On to `CC(C)c1ccc(OCCN2CCOCC2)c2cnc(Nc3ccnc(N4CC[C@](C)(O)[C@H](F)C4)n3)cc12` [Example 31, (3R,4S)-3-fluoro-1-(4-((5-isopropyl-8-(2-morpholinoethoxy)isoquinolin-3-yl)amino)pyrimidin-2-yl)-4-methylpiperidin-4-ol], for which the half-maximal inhibitory concentration (IC50) was > 50 nM in assay [1] and < 15 nM at EGFR (L858R T790M C797S).

Consider `CC(C)c1ccc(OCCn2ccnn2)c2cnc(Nc3ccnc(N4CC[C@](C)(O)[C@H](F)C4)n3)cc12` [Example 32, (3R,4S)-1-(4-((8-(2-(1H-1,2,3-triazol-1-yl)ethoxy)-5-isopropylisoquinolin-3-yl)amino)pyrimidin-2-yl)-3-fluoro-4-methylpiperidin-4-ol], for which the figures for the half-inhibitory concentration (IC50) (in assay [1]; at EGFR (L858R T790M C797S)) were > 50 nM and < 15 nM, respectively.

As to `CC(C)c1ccc(OC[C@@H]2CCC(=O)N2C)c2cnc(Nc3ccnc(N4CC[C@](C)(O)[C@H](F)C4)n3)cc12` [Example 33, (S)-5-(((3-((2-((3R,4S)-3-fluoro-4-hydroxy-4-methylpiperidin-1-yl)pyrimidin-4-yl)amino)-5-isopropylisoquinolin-8-yl)oxy)methyl)-1-methylpyrrolidin-2-one], the IC50 in assay [1] was 30 to 50 nM; on EGFR (L858R T790M C797S), 15 to 20 nM.

Turning to `CC(C)c1ccc(OCCc2ccnn2C)c2cnc(Nc3ccnc(N4CC[C@](C)(O)[C@H](F)C4)n3)cc12` [Example 34, (3R,4S)-3-fluoro-1-(4-((5-isopropyl-8-(2-(1-methyl-1H-pyrazol-5-yl)ethoxy)isoquinolin-3-yl)amino)pyrimidin-2-yl)-4-methylpiperidin-4-ol], the IC50 in assay [1] was > 50 nM; on EGFR (L858R T790M C797S), 15 to 20 nM.

For `CC(C)c1ccc(OCCc2cnnn2C)c2cnc(Nc3ccnc(N4CC[C@](C)(O)[C@H](F)C4)n3)cc12` [Example 35, (3R,4S)-3-fluoro-1-(4-((5-isopropyl-8-(2-(1-methyl-1H-1,2,3-triazol-5-yl)ethoxy)isoquinolin-3-yl)amino)pyrimidin-2-yl)-4-methylpiperidin-4-ol], the IC50 in assay [1] lay within 30 to 50 nM; on EGFR (L858R T790M C797S) it was 15 to 20 nM.

With `CC(C)c1ccc(OC[C@H](C)n2cnnc2)c2cnc(Nc3ccnc(N4CC[C@](C)(O)[C@H](F)C4)n3)cc12` [Example 36, (3R,4S)-1-(4-((8-((S)-2-(4H-1,2,4-triazol-4-yl)propoxy)-5-isopropylisoquinolin-3-yl)amino)pyrimidin-2-yl)-3-fluoro-4-methylpiperidin-4-ol], the figures for the IC50 (in assay [1]; on EGFR (L858R T790M C797S)) were > 50 nM and 15 to 20 nM, respectively.

`CC(C)c1ccc(OC[C@@H](C)n2cnnc2)c2cnc(Nc3ccnc(N4CC[C@](C)(O)[C@H](F)C4)n3)cc12` [Example 37, (3R,4S)-1-(4-((8-((R)-2-(4H-1,2,4-triazol-4-yl)propoxy)-5-isopropylisoquinolin-3-yl)amino)pyrimidin-2-yl)-3-fluoro-4-methylpiperidin-4-ol]: the half-maximal inhibitory concentration (IC50) in assay [1] was in the range of 30 to 50 nM; at EGFR (L858R T790M C797S), 15 to 20 nM.

Regarding `CC(C)c1ccc(OCCc2cncn2C)c2cnc(Nc3ccnc(N4CC[C@](C)(O)[C@H](F)C4)n3)cc12` [Example 38, (3R,4S)-3-fluoro-1-(4-((5-isopropyl-8-(2-(1-methyl-1H-imidazol-5-yl)ethoxy)isoquinolin-3-yl)amino)pyrimidin-2-yl)-4-methylpiperidin-4-ol], the IC50 in assay [1] was > 50 nM; at EGFR (L858R T790M C797S) it was 15 to 20 nM.

`CC(C)c1ccc(OCCn2cncn2)c2cnc(Nc3ccnc(N4CC[C@](C)(O)[C@H](F)C4)n3)cc12` [Example 39, (3R,4S)-1-(4-((8-(2-(1H-1,2,4-triazol-1-yl)ethoxy)-5-isopropylisoquinolin-3-yl)amino)pyrimidin-2-yl)-3-fluoro-4-methylpiperidin-4-ol]: the half-inhibitory concentration (IC50) in assay [1] is > 50 nM; at EGFR (L858R T790M C797S) it was 15 to 20 nM.

Take `CO[C@@H]1CCN(c2nccc(Nc3cc4c(C(C)C)ccc(OCCn5cnnc5)c4cn3)n2)C[C@@H]1F` [Example 40, 8-(2-(4H-1,2,4-triazol-4-yl)ethoxy)-N-(2-((3S,4R)-3-fluoro-4-methoxypiperidin-1-yl)pyrimidin-4-yl)-5-isopropylisoquinolin-3-amine]: the IC50 was > 50 nM in assay [1] and < 15 nM on EGFR (L858R T790M C797S).

Broadly, the IC50 is the concentration at which inhibition is half-maximal.
